Activity calls are given as the source filed them.
Experiments:
Prothrombin = Prothrombin (Homo sapiens, UniProt P00734); experiment: Thrombin 1536 HTS Dose Response Confirmation. [Related pubchem assays: 1046 (Thrombin 1536 HTS; hits were confirmed in this assay)]; format: functional
HEK293 = experiment: EBV LMP1 TES2 canonical NF-kB signalling blockers – cell-based, HEK293, luciferase, cherry-pick, dose response (AID 588343); format: functional; details: Homo sapiens
[1] = biological target: T1, Replicative DNA helicase DnaB (Mycobacterium tuberculosis, UniProt P9WMR3); experiment: DnaB intein splicing inhibitors, dose response, biochemical, cell-free fluorescence (AID 449749); format: functional
T1 sequence (P9WMR3 whole entry): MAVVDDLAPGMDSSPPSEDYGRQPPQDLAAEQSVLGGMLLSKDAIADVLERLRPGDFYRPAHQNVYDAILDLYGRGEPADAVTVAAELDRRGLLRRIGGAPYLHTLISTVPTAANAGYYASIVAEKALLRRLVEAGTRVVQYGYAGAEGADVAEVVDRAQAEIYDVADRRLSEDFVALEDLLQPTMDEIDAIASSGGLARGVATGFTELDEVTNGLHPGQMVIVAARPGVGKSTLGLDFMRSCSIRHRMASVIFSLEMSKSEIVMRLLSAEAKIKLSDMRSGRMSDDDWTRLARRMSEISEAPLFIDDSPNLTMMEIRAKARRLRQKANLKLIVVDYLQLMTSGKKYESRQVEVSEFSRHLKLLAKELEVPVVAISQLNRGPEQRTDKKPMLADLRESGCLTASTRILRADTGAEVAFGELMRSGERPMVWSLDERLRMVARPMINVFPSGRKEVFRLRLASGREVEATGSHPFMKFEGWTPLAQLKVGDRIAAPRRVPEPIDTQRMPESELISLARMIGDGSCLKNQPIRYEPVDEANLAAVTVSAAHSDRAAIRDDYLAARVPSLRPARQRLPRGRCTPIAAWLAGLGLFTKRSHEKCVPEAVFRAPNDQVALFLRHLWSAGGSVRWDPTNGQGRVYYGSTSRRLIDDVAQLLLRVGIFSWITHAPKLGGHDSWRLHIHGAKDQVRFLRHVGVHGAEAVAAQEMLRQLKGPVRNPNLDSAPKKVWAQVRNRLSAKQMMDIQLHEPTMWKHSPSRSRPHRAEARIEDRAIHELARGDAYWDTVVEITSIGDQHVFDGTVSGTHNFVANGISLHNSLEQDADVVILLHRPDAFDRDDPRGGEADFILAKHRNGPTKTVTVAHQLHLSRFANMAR

Protein RecA = biological target: T2, Protein RecA (Mycobacterium tuberculosis, UniProt P9WHJ3); experiment: Fluorescence Cell-Free Homogeneous Dose Retest to Identify Inhibitors of RecA-Intein Splicing Activity. [Related pubchem assays (depositor defined):AID2097, AID2223, AID489010, AID492950]; format: functional
T2 sequence (P9WHJ3 whole entry): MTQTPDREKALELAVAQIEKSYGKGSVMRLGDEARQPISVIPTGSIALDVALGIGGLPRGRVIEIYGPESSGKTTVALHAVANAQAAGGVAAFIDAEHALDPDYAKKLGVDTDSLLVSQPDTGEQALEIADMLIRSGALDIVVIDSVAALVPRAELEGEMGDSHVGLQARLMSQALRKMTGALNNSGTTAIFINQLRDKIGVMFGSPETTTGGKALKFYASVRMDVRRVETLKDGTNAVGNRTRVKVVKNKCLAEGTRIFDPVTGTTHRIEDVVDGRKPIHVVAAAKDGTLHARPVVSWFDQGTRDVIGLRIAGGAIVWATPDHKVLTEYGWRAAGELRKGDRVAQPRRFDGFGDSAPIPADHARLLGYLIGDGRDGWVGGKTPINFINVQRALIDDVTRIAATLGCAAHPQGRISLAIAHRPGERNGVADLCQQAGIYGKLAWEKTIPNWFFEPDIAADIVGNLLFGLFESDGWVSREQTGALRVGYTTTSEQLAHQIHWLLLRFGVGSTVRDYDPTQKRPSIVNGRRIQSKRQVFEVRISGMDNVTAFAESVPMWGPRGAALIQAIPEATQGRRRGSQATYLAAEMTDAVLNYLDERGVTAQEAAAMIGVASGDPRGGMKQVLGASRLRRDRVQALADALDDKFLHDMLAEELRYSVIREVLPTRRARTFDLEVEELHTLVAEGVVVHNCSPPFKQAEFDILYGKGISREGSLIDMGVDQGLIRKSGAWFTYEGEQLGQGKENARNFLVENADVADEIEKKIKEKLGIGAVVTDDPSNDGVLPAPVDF

[2] = biological target: Voltage-dependent T-type calcium channel subunit alpha-1H (Homo sapiens, UniProt O95180); format: functional;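 further: channel activity triggered by adding a high calcium stimulation buffer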
[3] = NIH-3T3 fibroblast cytotoxicity, dose response, cytotoxicity control, cell-based, fluorescence, Alamar Blue, secondary assay (AID 2327); format: functional;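 further: NIH-3T3 mouse fibroblasts cultured with fluconazole at 8 µg/mL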
[4] = fluconazole-exposed Candida albicans growth modulators – fluorescence, retest, confirmation (AID 2467); format: functional, cell-based
Nonstructural protein 1 = Nonstructural protein 1 (Influenza A virus, UniProt Q194T2); format: functional, Influenza A virus (A/California/07/2009(H1N1))
[5] = Trypanosoma cruzi growth suppression in host cells – NIH3T3 host cells, beta-gal luminescence, confirmation (AID 2044); format: functional, cell-based;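 further: intracellular parasites grown in NIH/3T3 mouse fibroblasts as host cells; luminescent beta-galactosidase reporter signal from transgenic T. cruzi replicating inside host cells; inhibitors lower the luminescence signal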
[6] = NIH3T3 cell viability loss – ATP luminescence, mouse fibroblasts, counter-screen, dose response (AID 2010); format: functional, cell-based;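 further: cells exposed to compound for about 90 hours before reading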
[7] = viability loss in HeLa cells – cytotoxicity control for MgcRacGAP inhibitor project, dose response (AID 624300); format: functional
[8] = biological target: T3, Rac GTPase-activating protein 1 (Homo sapiens, UniProt Q9H0H5); experiment: blockers of MgcRacGAP-driven Rac1 GTP hydrolysis – biochemical, ADP Hunter fluorescence, primary and confirmatory, confirmation (AID 624330); format: functional
T3 sequence (Q9H0H5 whole entry): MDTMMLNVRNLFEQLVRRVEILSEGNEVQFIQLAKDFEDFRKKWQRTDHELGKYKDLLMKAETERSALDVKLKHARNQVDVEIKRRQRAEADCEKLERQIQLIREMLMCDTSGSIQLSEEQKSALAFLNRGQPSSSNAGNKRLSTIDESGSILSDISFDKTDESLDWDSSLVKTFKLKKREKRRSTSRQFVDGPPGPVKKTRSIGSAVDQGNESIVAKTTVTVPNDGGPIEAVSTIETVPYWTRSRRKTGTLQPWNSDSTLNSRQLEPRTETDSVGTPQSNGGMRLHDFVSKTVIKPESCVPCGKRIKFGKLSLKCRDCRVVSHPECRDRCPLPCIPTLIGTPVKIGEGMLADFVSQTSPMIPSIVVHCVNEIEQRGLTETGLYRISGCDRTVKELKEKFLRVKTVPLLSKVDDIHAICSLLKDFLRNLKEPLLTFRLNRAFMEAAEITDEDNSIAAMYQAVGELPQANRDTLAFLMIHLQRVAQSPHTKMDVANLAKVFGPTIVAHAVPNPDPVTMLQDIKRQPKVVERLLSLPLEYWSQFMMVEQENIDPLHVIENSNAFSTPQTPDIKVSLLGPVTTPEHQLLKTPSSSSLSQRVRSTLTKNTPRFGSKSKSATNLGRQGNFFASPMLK

[9] = test system: Streptococcus sp. 'group A'; experiment: Streptococcus pyogenes SK(-)GAS viability under kanamycin – luminescence, BacTiterGlo, confirmation, counter-screen for streptokinase expression inhibitor project, dose response (AID 1900); format: functional, organism-based
Streptokinase A = biological target: T4, Streptokinase A (Streptococcus pyogenes serotype M1, UniProt P10520); experiment: viability-normalized secreted streptokinase activity reduction – plasminogen activation absorbance, OD405, dose response (AID 1914); format: functional, Streptococcus pyogenes M1 GAS;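 further: secreted streptokinase activity via plasminogen activation per viability signal from cell pellet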
T4 sequence (P10520 whole entry): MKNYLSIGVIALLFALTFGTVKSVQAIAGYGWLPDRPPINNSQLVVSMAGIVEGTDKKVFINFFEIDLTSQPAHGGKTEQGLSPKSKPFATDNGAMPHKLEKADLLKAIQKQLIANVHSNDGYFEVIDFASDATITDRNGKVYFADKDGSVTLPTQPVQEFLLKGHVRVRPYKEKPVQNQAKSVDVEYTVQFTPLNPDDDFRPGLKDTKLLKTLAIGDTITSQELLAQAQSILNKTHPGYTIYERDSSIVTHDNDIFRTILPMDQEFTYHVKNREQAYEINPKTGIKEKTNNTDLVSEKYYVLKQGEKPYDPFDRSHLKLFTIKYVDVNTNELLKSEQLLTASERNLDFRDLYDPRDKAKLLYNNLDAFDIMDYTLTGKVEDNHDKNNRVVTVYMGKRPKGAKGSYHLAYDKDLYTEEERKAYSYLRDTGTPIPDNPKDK

Streptococcus = experiment: GAS UMAA2166 growth inhibition – luminescence, BacTiterGlo, counter-screen for streptokinase expression inhibitor project, dose response (AID 1915); format: functional, organism-based;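 further: potency for reduction of bacterial viability or growth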
[10] = Luminescence Cell-Based Dose Retest to Confirm Inhibitors of Cancer Stem Cells. [Related pubchem assays (depositor defined):AID2717, AID2721]; format: functional; details: Homo sapiens
[11] = viability of PTEN-deleted HCT116 cells – cell-based, HCT116 PTEN knockout, dose response (AID 1047); format: functional;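 further: HCT116 colon tumor cells with PTEN knocked out; cells exposed to compound for 60 hours before readout; potency for loss of cell viability measured by luminescence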
[12] = viability of HCT116 lacking mutant beta-catenin – cell-based, human colon tumor, dose response (AID 1045); format: functional;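 further: HCT116 colon tumor cells with beta catenin knocked out; cells exposed to compound for 60 hours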
Cysteine protease ATG4B = biological target: T5, Cysteine protease ATG4B (Homo sapiens, UniProt Q9Y4P1); format: functional;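 further: Fluorescence-based dose-response confirmation assay measuring inhibition of ATG4B activity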
T5 sequence (Q9Y4P1 whole entry): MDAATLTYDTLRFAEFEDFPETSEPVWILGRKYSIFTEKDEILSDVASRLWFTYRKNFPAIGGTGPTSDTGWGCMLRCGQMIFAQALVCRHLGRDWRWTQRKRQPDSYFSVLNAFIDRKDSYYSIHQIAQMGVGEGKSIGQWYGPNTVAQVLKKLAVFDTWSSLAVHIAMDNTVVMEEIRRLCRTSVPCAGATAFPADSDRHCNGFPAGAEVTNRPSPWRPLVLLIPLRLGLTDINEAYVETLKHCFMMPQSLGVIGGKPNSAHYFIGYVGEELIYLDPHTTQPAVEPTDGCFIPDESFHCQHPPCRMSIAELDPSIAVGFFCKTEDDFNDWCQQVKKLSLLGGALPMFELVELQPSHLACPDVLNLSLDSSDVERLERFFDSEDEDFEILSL

Phospholipase A2 = Phospholipase A2 (Homo sapiens, UniProt P04054); format: functional;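 further: confirmatory dose-response counterscreen on phospholipase A2, testing hits that came from an ultra-high-throughput screen for ATG4B inhibitors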
INS1 = experiment: INS-1E survival protection against cytokine death – cell-based, luminescence, retest, dose response (AID 449756); format: functional; details: Rattus norvegicus;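 further: cell death triggered by IL-1 beta plus TNF-alpha plus IFN-gamma mixture; protective hits raise ATP signal compared with cytokine alone wells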

Chain of Phospholipase A2 (P04054 whole entry): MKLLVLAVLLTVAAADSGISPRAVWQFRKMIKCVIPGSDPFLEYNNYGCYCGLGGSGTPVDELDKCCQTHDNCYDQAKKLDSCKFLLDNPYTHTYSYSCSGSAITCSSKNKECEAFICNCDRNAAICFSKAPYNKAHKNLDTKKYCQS
Chain of Voltage-dependent T-type calcium channel subunit alpha-1H (O95180 whole entry): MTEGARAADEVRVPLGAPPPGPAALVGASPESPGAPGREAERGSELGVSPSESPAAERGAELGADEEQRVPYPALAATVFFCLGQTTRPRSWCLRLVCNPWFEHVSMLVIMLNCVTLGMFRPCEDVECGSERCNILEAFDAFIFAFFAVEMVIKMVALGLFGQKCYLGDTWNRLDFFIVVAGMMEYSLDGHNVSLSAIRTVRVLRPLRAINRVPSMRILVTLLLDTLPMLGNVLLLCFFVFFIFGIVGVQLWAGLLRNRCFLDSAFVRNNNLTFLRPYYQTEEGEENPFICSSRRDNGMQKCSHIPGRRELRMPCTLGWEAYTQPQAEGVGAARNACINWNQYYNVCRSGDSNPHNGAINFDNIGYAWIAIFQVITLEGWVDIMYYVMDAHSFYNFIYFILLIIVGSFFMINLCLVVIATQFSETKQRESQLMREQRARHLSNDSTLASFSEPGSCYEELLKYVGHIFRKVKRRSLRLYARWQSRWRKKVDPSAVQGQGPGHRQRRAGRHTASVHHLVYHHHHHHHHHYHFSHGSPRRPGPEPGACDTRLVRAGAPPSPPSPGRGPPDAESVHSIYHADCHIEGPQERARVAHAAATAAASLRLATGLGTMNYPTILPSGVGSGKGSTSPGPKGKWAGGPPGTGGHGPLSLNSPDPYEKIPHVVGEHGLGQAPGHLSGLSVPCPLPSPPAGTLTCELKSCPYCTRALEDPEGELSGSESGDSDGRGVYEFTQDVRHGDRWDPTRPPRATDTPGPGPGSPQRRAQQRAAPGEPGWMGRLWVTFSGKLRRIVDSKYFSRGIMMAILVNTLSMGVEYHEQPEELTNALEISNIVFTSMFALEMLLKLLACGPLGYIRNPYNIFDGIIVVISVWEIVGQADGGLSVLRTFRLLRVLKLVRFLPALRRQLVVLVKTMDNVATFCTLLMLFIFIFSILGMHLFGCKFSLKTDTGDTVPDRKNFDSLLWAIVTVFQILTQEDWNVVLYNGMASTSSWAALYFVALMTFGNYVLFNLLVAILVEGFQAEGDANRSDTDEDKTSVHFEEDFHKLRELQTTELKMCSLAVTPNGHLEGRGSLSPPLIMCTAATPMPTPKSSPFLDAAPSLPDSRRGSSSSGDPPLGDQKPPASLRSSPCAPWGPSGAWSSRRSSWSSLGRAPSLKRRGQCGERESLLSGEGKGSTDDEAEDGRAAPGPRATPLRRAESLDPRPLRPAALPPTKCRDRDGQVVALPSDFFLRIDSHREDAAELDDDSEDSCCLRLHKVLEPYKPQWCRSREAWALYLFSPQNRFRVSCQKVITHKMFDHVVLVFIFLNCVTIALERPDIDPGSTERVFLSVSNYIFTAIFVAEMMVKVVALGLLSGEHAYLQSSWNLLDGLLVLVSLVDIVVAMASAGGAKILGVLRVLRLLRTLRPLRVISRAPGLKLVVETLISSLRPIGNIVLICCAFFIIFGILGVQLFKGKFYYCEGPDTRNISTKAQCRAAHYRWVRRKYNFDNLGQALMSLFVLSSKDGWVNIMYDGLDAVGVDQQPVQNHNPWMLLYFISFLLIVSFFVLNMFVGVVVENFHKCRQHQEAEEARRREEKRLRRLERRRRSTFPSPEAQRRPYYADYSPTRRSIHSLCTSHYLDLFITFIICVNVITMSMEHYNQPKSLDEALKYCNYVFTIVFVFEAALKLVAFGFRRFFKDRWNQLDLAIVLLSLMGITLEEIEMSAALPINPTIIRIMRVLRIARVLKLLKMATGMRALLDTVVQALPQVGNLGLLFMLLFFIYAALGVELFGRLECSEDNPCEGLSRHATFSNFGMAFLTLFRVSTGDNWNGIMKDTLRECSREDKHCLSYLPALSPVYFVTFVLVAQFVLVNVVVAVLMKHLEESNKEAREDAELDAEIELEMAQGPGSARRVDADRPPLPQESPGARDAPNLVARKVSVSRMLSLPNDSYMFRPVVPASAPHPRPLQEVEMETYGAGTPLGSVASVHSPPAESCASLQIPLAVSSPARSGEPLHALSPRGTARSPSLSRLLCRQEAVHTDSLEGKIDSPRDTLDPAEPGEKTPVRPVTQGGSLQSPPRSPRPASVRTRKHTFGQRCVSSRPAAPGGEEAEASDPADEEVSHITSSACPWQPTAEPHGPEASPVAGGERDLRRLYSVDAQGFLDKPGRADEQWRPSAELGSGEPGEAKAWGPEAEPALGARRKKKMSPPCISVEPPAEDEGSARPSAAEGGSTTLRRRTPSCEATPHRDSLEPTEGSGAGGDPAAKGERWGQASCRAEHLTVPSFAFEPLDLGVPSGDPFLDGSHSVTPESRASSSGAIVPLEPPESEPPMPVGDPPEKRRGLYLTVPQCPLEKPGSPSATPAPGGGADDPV
Chain of Nonstructural protein 1 (Q194T2 whole entry): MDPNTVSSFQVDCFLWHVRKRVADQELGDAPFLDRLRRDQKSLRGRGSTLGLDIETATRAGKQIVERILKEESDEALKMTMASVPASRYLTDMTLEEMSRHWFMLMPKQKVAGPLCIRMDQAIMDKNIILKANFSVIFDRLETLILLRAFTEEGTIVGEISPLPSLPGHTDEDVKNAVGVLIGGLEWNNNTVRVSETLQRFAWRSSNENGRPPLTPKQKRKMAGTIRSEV

Compound: O=C1C=C(O)c2c(O)cccc2C1=O
- IC50 (Prothrombin): > 50 µM (not active)

Compound: COc1ccc(/C=C2\SC(=O)N(CCCC(=O)Nc3ccc(C(=O)O)cc3)C2=O)cc1
- AC50 (HEK293): 2.37 µM (active)

Compound: COc1cccc(C(=O)Nc2n[nH]c(SCc3ccc(Cl)cc3)n2)c1
- IC50 (Prothrombin): 2.94 µM (active)
- AC50 [1]: 2.78 µM (active)
- EC50 (Protein RecA): 1.29 µM (active)

Compound: O=C(CCC1COc2ccccc2O1)Nc1ccc(Cl)cn1 (stereo not given)
- EC50 [2]: 2.94 µM (active)

Compound: C=CCn1c(O)c(N=NC(S)=Nc2ccccc2C)c2cc(S(=O)(=O)N3CCOCC3)ccc21
- EC50 [3]: 20.4 µM (inconclusive)
- EC50 [4]: 2.06 µM (active)
- AC50 (HEK293): 2.93 µM (active)

Compound: O=C(Nc1cc(C(F)(F)F)cc(C(F)(F)F)c1)c1ccc(Cn2cc(C(F)(F)F)ccc2=O)cc1
- EC50 [2]: 5.74 µM (active)

Compound: O=C(Nc1nc2ccccc2s1)C1CCCN1S(=O)(=O)c1ccc(Cl)cc1 (stereo not given)
- EC50 [2]: 5.86 µM (active)

Compound: Clc1ccc(-c2cnnc(-c3ccccn3)n2)cc1
- IC50 (Nonstructural protein 1): 14.2 µM (active)

Compound: CCCc1c(C(=O)N/N=C(\C)c2ccccn2)nnn1-c1nonc1N
- AC50 (HEK293): 9.69 µM (active)

Compound: CCOc1cc(CNc2ccc(N3CCCCC3)cc2)cc(Br)c1OCC(=O)NC(C)(C)C
- EC50 [5]: 1.46 µM (active)
- EC50 [6]: > 60 µM (inconclusive)
- CC50 [7]: 100 µM (active)
- IC50 [8]: 20.8 µM (active)

Compound: COc1ccc(C(C(O)C(=O)c2c[nH]c3ccccc23)N2CCN(c3ccccc3)CC2)cc1 (stereo not given)
- EC50 [2]: 8.16 µM (active)

Compound: O=[N+]([O-])c1nn(-c2ccc3c(c2)OCCO3)[n+]([O-])c1NC1CCCCCC1
- EC50 [5]: 0.681 µM (active)
- EC50 [6]: > 30 µM (not active)
- IC50 (Nonstructural protein 1): 44.6 µM (active)

Compound: S=C(NCC1CCCCC1)Nc1ccc(Oc2ccccc2)cc1
- EC50 [9]: 10.9 µM (active)
- EC50 (Streptokinase A): 4.05 µM (active)
- EC50 [5]: 2.05 µM (active)
- EC50 [6]: > 60 µM (not active)
- EC50 (Streptococcus): 24.3 µM (active)
- AC50 [10]: 4.58 µM (active)
- AC50 (HEK293): 170 µM (active)

Compound: N#Cc1ccc(-c2ccc(F)cc2)nc1Sc1ccc(F)cc1
- EC50 [11]: 20.6 µM (active)
- EC50 [12]: 28.7 µM (active)

Compound: O=C(Nc1nc(-c2cccs2)cs1)c1ccco1
- IC50 (Prothrombin): > 50 µM (not active)

Compound: CCC1=NN(C(=O)c2cccc(Br)c2)C(O)(c2ccc(Br)cc2)C1 (stereo not given)
- AC50 [10]: 0.634 µM (active)
- IC50 (Cysteine protease ATG4B): 12.1 µM (active)
- IC50 (Phospholipase A2): 8.71 µM (active)
- AC50 (INS1): 4.84 µM (active)

Compound: COc1ccc(CNc2nc(-c3cccnc3)nn2C(C)=O)cc1
- IC50 (Prothrombin): 0.0252 µM (active)

Compound: CC(=O)c1ccc(O)c(CSC2=NCCS2)c1
- IC50 (Prothrombin): > 50 µM (not active)

Compound: CCCC(=O)n1nc(-c2ccc(Cl)cc2)nc1SC
- IC50 (Prothrombin): 3.57 µM (active)

Compound: Cc1ccc(C(=O)O)cc1/N=C/c1cc(Br)cc(Br)c1O
- IC50 (Cysteine protease ATG4B): 9.89 µM (active)
- IC50 (Phospholipase A2): 18 µM (active)

Compound: Cc1ccc(-c2nnn(CC(=O)N(c3ccccc3F)C(CC(C)C)C(=O)NCC3CCCO3)n2)cc1 (stereo not given)
- EC50 [2]: 5.3 µM (active)

Compound: NC(=O)CSc1nc2cc([N+](=O)[O-])ccc2[nH]1
- IC50 (Cysteine protease ATG4B): 12.4 µM (active)
- IC50 (Phospholipase A2): 9.62 µM (active)

Compound: CN(C)Cc1ccc(F)cc1Sc1cc(Cl)ccc1Cl
- IC50 (Cysteine protease ATG4B): 16.9 µM (active)
- IC50 (Phospholipase A2): 16.4 µM (active)

Reference: ChEMBL document CHEMBL1201862, “PubChem BioAssay data set” (2004)
